Laboratory results published in ChEMBL document CHEMBL5131466, “Discovery and development of labdane-oxindole hybrids as small-molecule inhibitors against chikungunya virus infection” (Eur J Med Chem, 2022).
Calls of active or inactive are those of the source. The rule behind the calls is not given here.

Key:
[1] = Cytotoxicity against human HeLa CCL2 cells assessed as reduction in cell viability measured after 24 hrs by Alamar blue assay; type: functional
Chikungunya virus [2] = test: Antiviral activity against CHIKV 122508 infected in […] BHK-21 cells assessed as reduction in viral titer at MOI of 1 measured after 24 hpi by viral plaque assay; type: functional, organism-based; conditions: Chikungunya virus, 122508, BHK-21
[3] = Selectivity index, ratio of CC50 for cytotoxicity against human HeLa CCL2 cells to EC50 for antiviral activity against CHIKV 122508 infected in human HeLa CCL2 cells; type: toxicity, cell-based; conditions: read-out: Ratio CC50/EC50
Chikungunya virus [4] = test: Antiviral activity against CHIKV 122508 infected in human HeLa CCL2 cells assessed as inhibition of viral replication at MOI of 1 at 1 uM incubated for 24 hpi by viral plaque assay; type: functional; conditions: time 24 hrs
Chikungunya virus [5] = test: Antiviral activity against CHIKV 122508 infected in human HeLa CCL2 cells assessed as inhibition of viral replication at MOI of 1 at 20 uM incubated for 24 hpi by viral plaque assay; type: functional; conditions: time 24 hrs
Chikungunya virus [6] = test: Antiviral activity against CHIKV 122508 infected in human HeLa CCL2 cells assessed as inhibition of viral replication at MOI of 1 incubated for 24 hpi by immunofluorescence assay; type: functional, organism-based; conditions: Chikungunya virus, 122508, HeLa CCL2
Chikungunya virus [7] = test: Antiviral activity against CHIKV 122508 infected in human HeLa CCL2 cells assessed as inhibition of viral replication at MOI of 1 at 5 uM incubated for 24 hpi by viral plaque assay; type: functional; conditions: time 24 hrs
Chikungunya virus [8] = test: Antiviral activity against CHIKV 122508 infected in human HeLa CCL2 cells assessed as inhibition of viral replication at MOI of 1 at 80 uM incubated for 24 hpi by viral plaque assay; type: functional; parameters: unit not given here; conditions: time 24 hrs
Chikungunya virus [9] = test: Antiviral activity against CHIKV 122508 infected in human HeLa CCL2 cells assessed as inhibition of viral replication at MOI of 1 at 80 uM pretreated for 2 hrs followed by viral infection measured after 1.5 hrs by viral plaque assay (reference value: 6.2); type: functional; conditions: time 3.5 hrs
Chikungunya virus [10] = test: Antiviral activity against CHIKV 122508 infected in human HeLa CCL2 cells assessed as inhibition of viral replication at MOI of 1 at 40 uM pretreated with compound for 2 hr prior to viral infection by viral plaque assay (reference value: 6.2 %); type: functional
Chikungunya virus [11] = test: Antiviral activity against CHIKV 6708 infected in hamster BHK-21 cells assessed as reduction in viral titer at 80 uM post treatment; type: functional, organism-based
BHK-21 = test: Cytotoxicity against hamster BHK-21 cells assessed as reduction in cell viability; type: functional; conditions: Mesocricetus auratus
Chikungunya virus [12] = test: Antiviral activity against CHIKV 6708 infected in hamster BHK-21 cells assessed as reduction in virus titer in cells; type: functional, organism-based; conditions: Chikungunya virus, 6708, BHK-21
[13] = Selectivity index, ratio of CC50 for Cytotoxicity against hamster BHK-21 cells to EC50 for Antiviral activity against CHIKV 6708 infected in hamster BHK-21 cells; type: toxicity, cell-based; conditions: read-out: Ratio CC50/EC50
Chikungunya virus [14] = test: Antiviral activity against CHIKV 122508 mutant infected in hamster BHK-21cells assessed as log reduction in viral titer at 80 uM measured after 14 passage; type: functional, organism-based

SMILES	CC50 [1]	EC50 (Chikungunya virus [2])	selectivity ratio [3]	Activity (Chikungunya virus [7])	also measured
C=C1[C@H](O)C[C@H]2C(C)(C)CCC[C@]2(C)[C@H]1C/C=C1/C(=O)Nc2c(Cl)cccc21	6.1 µM	0.001 µM	6100		Activity (Chikungunya virus [4]): 1.1
C=C1CC[C@H]2C(C)(C)CCC[C@]2(C)[C@H]1C/C=C1\C(=O)Nc2ncccc21	34.8 µM	0.04 µM	870		Activity (Chikungunya virus [5]): 1.7
C=C1CC[C@@H]2[C@](C)(CO)[C@H](O)CC[C@@]2(C)[C@@H]1C/C=C1/C(=O)OC[C@H]1O [ANDROGRAPHOLIDE]					EC50 (Chikungunya virus [6]): 77 µM
C=C1CC[C@H]2C(C)(C)CCC[C@]2(C)[C@H]1C/C=C1/C(=O)Nc2ccc(F)cc21	5.6 µM	0.06 µM	94	1.5	
C=C1CC[C@H]2C(C)(C)CCC[C@]2(C)[C@H]1C/C=C1\C(=O)Nc2ccc(C)cc21	13.8 µM	0.03 µM	461	0.9	
C=C1CC[C@@H]2[C@](C)(CO)[C@H](O)CC[C@@]2(C)[C@@H]1C/C=C1/C(=O)Nc2ccccc21	76.9 µM	5.52 µM	14		EC50 (Chikungunya virus [6]): 5.5 µM
C=C1CC[C@H]2C(C)(C)CCC[C@]2(C)[C@H]1C/C=C1/C(=O)Nc2c(Cl)cccc21	130 µM	1.55 µM	83		Activity (Chikungunya virus [8]): 3.9; Activity (Chikungunya virus [9]): 4.6; Activity (Chikungunya virus [10]): 5.2; Activity (Chikungunya virus [11]): Active; CC50 (BHK-21): > 100 µM; EC50 (Chikungunya virus [12]): 0.14 µM; selectivity ratio [13]: 714; Activity (Chikungunya virus [14]): Active
C=C1CC[C@H]2C(C)(C)CCC[C@]2(C)[C@H]1C/C=C1/C(=O)Nc2c(F)cccc21	81.4 µM	0.02 µM	4070		Activity (Chikungunya virus [5]): 2.3
C=C1CC[C@H]2C(C)(C)CCC[C@]2(C)[C@H]1C/C=C1/C(=O)Nc2cc(C)ccc21	25.4 µM	0.002 µM	12700	1.2	
